According to patent publication US10695283B2, “Extract of Greyia radlkoferi and use thereof” (UNIVERSITY OF PRETORIA, priority 2012, dated 2020):

Experiments:
tyrosinase = tyrosinase inhibition; type: biochemical; details: for individual tyrosinase inhibitory capability: isolated compounds; for tyrosinase 50% inhibitory concentration (IC50) of the individual phenolic compound: compound used in isolation
melanocyte cells = assay: inhibition of melanin release by melanocyte cells in vitro; type: cell-based
Excerpt: The inhibition of hyper-pigmentation is not restricted to inhibition at the enzyme level but melanin inhibition can also be achieved in vitro by the inhibition of melanin release by melanocyte cells.

Row | tyrosinase 50% inhibitory concentration (IC50) (tyrosinase; L-tyrosine and DOPA used as substrates) [mg/L] | tyrosinase 50% inhibitory concentration (IC50) of the individual phenolic compound (tyrosinase) [mg/L] | SMILES | individual tyrosinase inhibitory capability (tyrosinase) | melanin inhibited (melanocyte cells; at concentrations as low as 3.1 μg/ml) | melanin reduction (melanocyte cells; at 3.125 μg/ml) [%]
1 | 896.88 | – | O=C(/C=C/c1ccc(O)cc1)c1ccc(O)cc1O [isoliquirtigenin, reference compound] | – | – | –
2 | – | – | O=C1C[C@@H](c2ccccc2)Oc2cc(O)cc(O)c21 [Compound C1, 5,7-dihidroxyflavone[(2S)-pinocembrin]] | exhibit individual tyrosinase inhibitory capabilities | – | –
3 | – | 17.86 | O=C(CCc1ccccc1)c1c(O)cc(O)cc1O [Compound C3, 2′,4′,6′-trihydroxyhydrochalcone] | exhibit individual tyrosinase inhibitory capabilities | – | –
4 | – | – | O=c1c(-c2ccc(O)cc2)coc2cc(O)cc(O)c12 [Compound C5, 4′,5′7-trihydroxyisoflavone] | exhibit individual tyrosinase inhibitory capabilities | – | –
5 | – | 2.23 | O=c1c(O)c(-c2ccccc2)oc2cc(O)cc(O)c12 [Compound C4, 3,5,7-trihydroxyflavone] | exhibit individual tyrosinase inhibitory capabilities | more than 50% | –
6 | – | 21.42 | COc1cc(O)c(C(=O)CCc2ccccc2)c(O)c1 [Compound C2, 2′,6′-dihydroxy-4′-methoxydihydrochalcone] | exhibit individual tyrosinase inhibitory capabilities | – | 20
